Measured values reported in article PMC8294944 (Journal of agricultural and food chemistry, 2020).
Where two headings read alike, the source gives them in different places.

Legend:
[1] = biological target: T1, ERα (Ishikawa endometrial carcinoma cells) (Homo sapiens, UniProt P03372); settings: read-out: ERα EC50 (LigF); compared with 8-PA; cited from earlier work
T1 sequence (P03372 1-595): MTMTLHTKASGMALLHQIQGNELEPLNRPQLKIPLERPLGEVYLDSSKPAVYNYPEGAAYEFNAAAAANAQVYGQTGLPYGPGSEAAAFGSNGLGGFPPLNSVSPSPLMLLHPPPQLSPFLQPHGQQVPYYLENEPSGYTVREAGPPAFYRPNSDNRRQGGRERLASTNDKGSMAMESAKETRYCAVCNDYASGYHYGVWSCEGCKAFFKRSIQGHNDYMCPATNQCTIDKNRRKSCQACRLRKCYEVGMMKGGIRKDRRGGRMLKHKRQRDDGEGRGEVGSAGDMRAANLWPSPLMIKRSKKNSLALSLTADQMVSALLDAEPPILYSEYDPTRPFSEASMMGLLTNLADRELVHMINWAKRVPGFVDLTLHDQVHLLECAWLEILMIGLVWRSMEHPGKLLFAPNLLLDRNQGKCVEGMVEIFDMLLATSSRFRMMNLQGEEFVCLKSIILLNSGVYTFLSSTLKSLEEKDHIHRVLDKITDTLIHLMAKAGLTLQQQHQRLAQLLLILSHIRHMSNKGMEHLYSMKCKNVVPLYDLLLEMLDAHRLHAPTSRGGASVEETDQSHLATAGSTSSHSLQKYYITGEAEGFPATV

[2] = biological target: T1, ERα (Ishikawa endometrial carcinoma cells); experiment: Estrogen-responsive alkaline phosphatase assay in ERα positive Ishikawa cells; format: cell-based; settings: for Emax: Ishikawa, read-out: ERα Maximum efficacy
[3] = biological target: T2, purified full length human recombinant ERα (Homo sapiens, UniProt P03372); experiment: ERα competitive binding assay
T2 sequence (P03372 1-595): T1 sequence (P03372 1-595)

[4] = biological target: purified full length human recombinant ERβ (Homo sapiens, UniProt Q92731); experiment: ERβ competitive binding assay
uterine tissue = settings: 8-PN in dietary concentrations; cited from earlier work
[5] = alkaline phosphatase, Ishikawa cells, mean ± SEM
[6] = read-out: ERα EC50 (compounds), alkaline phosphatase, Ishikawa cells, mean ± SEM
[7] = relative to 17β-E2, [3H]-E2 tracer 20 nM

Sequence of purified full length human recombinant ERβ (Q92731 whole entry): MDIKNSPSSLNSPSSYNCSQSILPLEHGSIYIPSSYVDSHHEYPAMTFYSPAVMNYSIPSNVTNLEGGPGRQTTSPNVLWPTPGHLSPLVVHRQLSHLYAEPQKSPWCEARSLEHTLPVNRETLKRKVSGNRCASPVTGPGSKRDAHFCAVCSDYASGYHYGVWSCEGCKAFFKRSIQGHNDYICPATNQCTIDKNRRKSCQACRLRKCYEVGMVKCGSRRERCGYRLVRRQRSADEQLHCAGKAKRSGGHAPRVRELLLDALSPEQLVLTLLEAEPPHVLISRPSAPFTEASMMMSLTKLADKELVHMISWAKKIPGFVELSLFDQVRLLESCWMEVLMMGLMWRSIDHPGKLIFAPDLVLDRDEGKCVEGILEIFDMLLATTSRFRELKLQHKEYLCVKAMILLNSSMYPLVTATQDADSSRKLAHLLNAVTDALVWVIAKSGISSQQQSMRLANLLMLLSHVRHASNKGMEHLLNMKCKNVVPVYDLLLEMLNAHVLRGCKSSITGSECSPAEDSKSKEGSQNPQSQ

| Compound | ERα Maximum efficacy [2, 5] | EC50 [2, 6] | ERα % RBA (relative binding affinity = IC50 E2/IC50 (iso)flavonoid x100) [3, 7] | ERβ % RBA (relative binding affinity = IC50 E2/IC50 (iso)flavonoid x100) [4, 7] | EC50 [2] | Emax [2] | other results |
| --- | --- | --- | --- | --- | --- | --- | --- |
| O=C1C[C@@H](c2ccc(O)cc2)Oc2cc(O)ccc21 [LigF, liquiritigenin] |  |  |  |  |  |  | EC50 [1]: 3400 nM |
| Dehydrogenistein [DGN] | 84 ± 4.0 | 800 ± 100 nM | <0.002% | 14% |  |  |  |
| O=C1C[C@@H](c2ccc(O)cc2)Oc2cc(O)cc(O)c21 [NRG, naringenin] |  |  |  |  | 3700 ± 500 nM | 69 ± 6% | ERα % RBA (relative binding affinity = IC50 E2/IC50 (iso)flavonoid x100) [3]: <0.002%; ERβ % RBA (relative binding affinity = IC50 E2/IC50 (iso)flavonoid x100) [4]: 0.05% |
| CC(C)=CCc1c(O)cc(O)c2c1O[C@H](c1ccc(O)cc1)CC2=O [8-PN, 8-Prenylnaringenin] |  |  |  |  |  |  | Effect on uterine weight (uterine tissue): increased uterine weight |
| CC(C)=CCc1c(O)cc(O)c2c(=O)c(-c3ccc(O)cc3)coc12 [8-PG, 8-Prenylgenistein] |  |  | <0.002% | 0.9% | 500 ± 200 nM | 49 ± 10% |  |
| CC(C)=CCc1c(O)cc(O)c2c(=O)c(O)c(-c3ccc(O)cc3)oc12 [DMI, Desmethylicaritin] | 67 ± 12 | 200 ± 20 nM |  |  |  |  |  |
